Measurements from PMC11801715, “Activating PKC-ε induces HIV expression with improved tolerability” (PLOS Pathogens, 2025).
Read-outs that look alike come from different tables or passages of the source.

Legend:
[1] = tested on: platelets (CD62P+) and CD4+ T cells (CD69+) in whole blood; experiment: In vitro whole blood platelet and CD4+ T-cell activation assay; assay type: cell-based, human; settings: whole blood from healthy donors; platelets to CD4+ T cells
Procedure: We developed a novel human whole blood assay to determine whether other PKC agonists also activate platelets at the same concentrations that are required to activate CD4^+ T cells. Platelet activation was assessed by CD62P (P-selectin), which traffics to the cell surface upon activation and α-granule release. CD4^+ T-cell activation was assessed by CD69 upregulation (Fig 7A).
Whole blood was drawn into sodium citrate tubes using a 21-gauge needle. To prevent potential interference from tissue thromboplastin released during venipuncture, which could affect the accuracy of coagulation testing, the first 2 mL of blood drawn was discarded. PKC agonist molecules were dispensed in a dilution series into 80 μL of blood per well in a flat-bottom 96-well plate and mixed gently. Care was taken not to introduce any mechanical stress-related activation of platelets. […] The remaining 72 μL of blood in the first plate was incubated for 1 additional hour and stained with anti-human CD3 (UCHT1), CD4 (SK3), and CD69 (FN50) (30 minutes in the dark). Red blood cell lysis and fixing was done using BD lyse/fix solution. Stained cells were acquired on BD LSR Fortessa II after washing. […] EC50 values for platelet and CD4 T-cell activation for each agonist was obtained by nonlinear regression curve fit using GraphPad Prism version 9.3.0.

[2] = tested on: latent HIV in total CD4+ T cells; experiment: microbe, parasite or virus in culture; assay type: cell-based, HIV-1; settings: for HIV RNA Fold∆ over DMSO, Geomean: 5 μM
Procedure: Peripheral blood mononuclear cells and CD4^+ T cells used for evaluating PKC agonist and inhibitor molecules were isolated from leukopaks of selected participants as described previously. Isolated CD4^+ T cells (5×10^6 cells/well) were added to 24-well tissue culture plates in 2.5 mL of RPMI medium containing 100 nM each of elvitegravir and efavirenz. Cells were stimulated with DMSO (vehicle control) or the indicated concentrations of PKC agonist molecules. Cells were pretreated with PKC isoform inhibitors (Selleck Chemicals) for 1 hour before addition of PKC agonist at indicated concentrations and maintained at 37 °C, 5% CO2 for 3 days. Cell supernatants from each well were analyzed using the Cobas […] system for quantification of HIV-1 RNA using the HIV-1 test v2.0 kit (Roche Diagnostics).

[3] = target: T1, PKC-α (Homo sapiens, UniProt P17252); experiment: PKC isoform translocation in A549-tGFP cells; assay type: cell-based; design: host or cells: A549
Procedure: (§1) A description of this effort is reported elsewhere.
(§2) Cellular translocation of PKC isoforms upon activation was determined in 8 A549 cell lines, each expressing a single PKC isoform fused to tGFP (PhenoVista Biosciences). Cells were plated in 384-well plates (80 μL/well) at 10^5 cells/mL in RPMI with 10% FBS and rested overnight. PKC agonist(s) were serially diluted at 1:3 steps in DMSO and added to the cells. After 60 minutes in an incubator at 37 °C, 5% CO2, cells were stained with Hoechst-33342 and fixed with 2% paraformaldehyde for 30 minutes at 4 °C. Cells were then stained with wheat germ agglutinin conjugated to AlexaFluor647 (WGA-647) for 10 minutes at 4 °C, washed to remove excess dye and imaged with Cellomics Array Scan (Thermo Fisher) at room temperature (RT). Images were analyzed using Cellomics automated image analysis algorithm. Plasma membrane translocation was quantified using the ratio between the average fluorescence in the areas at the cell edge defined by WGA-647 and the cytoplasm region.

[4] = target: PKC-δ (Homo sapiens, UniProt Q05655); experiment: PKC isoform translocation in A549-tGFP cells; assay type: cell-based; design: host or cells: A549
Procedure: as §1, §2

[5] = target: PKC-η (Homo sapiens, UniProt P24723); experiment: PKC isoform translocation in A549-tGFP cells; assay type: cell-based; design: host or cells: A549; settings: A549-tGFP cells, 60 minutes
Procedure: as §1, §2

[6] = target: PKC-θ (Homo sapiens, UniProt Q04759); experiment: PKC isoform translocation in A549-tGFP cells; assay type: cell-based; design: host or cells: A549; settings: A549-tGFP cells, 60 minutes
Procedure: as §1, §2

[7] = target: T2, PKC-β1 (Homo sapiens, UniProt P05771); experiment: PKC isoform translocation in A549-tGFP cells; assay type: cell-based; design: host or cells: A549; settings: 60 minutes
Procedure: (§3) Using these findings we embarked on new designs for DAG-lactones with additional substituents from the ester moiety in combination with a few olefin substituents. A description of this effort is reported elsewhere.
as §2

[8] = target: T3, PKC-β2 (Homo sapiens, UniProt P05771); experiment: PKC isoform translocation in A549-tGFP cells; assay type: cell-based; design: host or cells: A549; settings: 60 minutes
Procedure: as §3, §2

[9] = target: T4, PKC-ε (Homo sapiens, UniProt Q02156); experiment: PKC isoform translocation in A549-tGFP cells; assay type: cell-based; design: host or cells: A549; settings: A549-tGFP cells, 60 minutes
T4 sequence (Q02156 1-737): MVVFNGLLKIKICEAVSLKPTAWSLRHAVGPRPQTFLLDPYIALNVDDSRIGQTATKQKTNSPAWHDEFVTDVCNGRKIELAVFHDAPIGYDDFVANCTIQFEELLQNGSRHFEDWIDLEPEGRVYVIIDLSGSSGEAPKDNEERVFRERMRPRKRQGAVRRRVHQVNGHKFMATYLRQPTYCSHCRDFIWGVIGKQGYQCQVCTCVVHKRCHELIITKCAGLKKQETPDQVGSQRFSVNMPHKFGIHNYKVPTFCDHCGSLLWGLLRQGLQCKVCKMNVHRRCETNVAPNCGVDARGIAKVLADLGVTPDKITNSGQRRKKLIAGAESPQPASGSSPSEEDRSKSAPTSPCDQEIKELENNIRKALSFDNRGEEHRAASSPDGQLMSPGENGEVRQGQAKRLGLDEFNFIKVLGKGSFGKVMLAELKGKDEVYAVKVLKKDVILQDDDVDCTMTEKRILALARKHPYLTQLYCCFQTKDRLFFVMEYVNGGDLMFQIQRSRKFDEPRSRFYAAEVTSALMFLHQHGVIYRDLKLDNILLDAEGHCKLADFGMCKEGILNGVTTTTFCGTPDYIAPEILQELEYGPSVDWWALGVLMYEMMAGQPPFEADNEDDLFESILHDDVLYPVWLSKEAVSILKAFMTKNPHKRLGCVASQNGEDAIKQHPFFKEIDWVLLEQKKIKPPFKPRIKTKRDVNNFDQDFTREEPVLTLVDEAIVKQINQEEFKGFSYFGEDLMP
Procedure: as §3, §2

[10] = target: T1, PKC-α; experiment: Z'-LYTE kinase activity assay; assay type: biochemical; settings: ATP at Kmapp, 2 μM peptide substrate; read-out: IC50 for classical PKC isoforms, PKC-α
Text: (§4) In this assay, phosphorylation of a synthetic FRET-peptide substrate protects the peptide from cleavage by the development reagent and prevents disruption of the FRET signal.

[11] = target: T2, PKC-β1; experiment: Z'-LYTE kinase activity assay; assay type: biochemical; settings: ATP at Kmapp, 2 μM peptide substrate; read-out: IC50 for classical PKC isoforms, PKC-β1
Text: as §4

[12] = target: T3, PKC-β2; experiment: Z'-LYTE kinase activity assay; assay type: biochemical; settings: ATP at Kmapp, 2 μM peptide substrate; read-out: IC50 for classical PKC isoforms, PKC-β2
Text: as §4

[13] = tested on: classical and novel PKC isoforms; experiment: Estimated PKC inhibition in cell culture from Z'-LYTE IC50 and free fraction; assay type: biochemical; settings: 25 µM, 34% free in cell culture media
Text: as §4

[14] = Free fraction in cell culture media; assay type: in vitro ADME
[15] = tested on: CD69 on CD4+ T cells; experiment: CD4+ T-cell activation flow cytometry (CD69); assay type: cell-based; settings: Homo sapiens; CD4+ T cells from ART-suppressed people with HIV; read-out: EC50, activation of CD69 expression
Procedure: Sixteen hours post treatment with PKC agonists, cellular activation of 100,000 CD4^+ T cells, taken from the above ex vivo HIV activation cultures, was assessed using flow cytometry. Cell surface expression of CD69 was measured on CD4^+ T cells using anti-human CD3 (UCHT1), CD4 (SK3) and CD69 (FN50) antibodies and standard flow staining methods. Stained cells were acquired on the Becton Dickinson (BD) LSR Fortessa II flow cytometer and results were analyzed using FlowJo software.

[16] = tested on: platelet-rich plasma; experiment: Platelet aggregation assay (light transmittance aggregometry); assay type: cell-based, human; settings: dilution series, 20 minutes
Procedure: Given that C-232A induced DIC in rats and monkeys, we tested whether C-232A could directly induce platelet activation and downstream aggregation. […] Adenosine diphosphate, a known platelet agonist, was used as a positive control (S7A Fig).
Aggregation of platelets was assessed using light transmittance aggregometry using standard methods.
(A) Assay principle for platelet aggregation assay.

[17] = tested on: PBMCs; experiment: Cytokine induction in vitro in PBMC culture supernatants; assay type: cell-based, human; settings: 24 hours
Procedure: Culture supernatants were analyzed for induction of several cytokines as shown in S3 Table, using a 10-plex MSD (Meso Scale Discovery) assay following manufacturer’s instructions. MSD Workbench 4.0 software was used for data analysis and 4-parameter logistic curve fit model was utilized to determine values of experimental samples from standard curves. Values for each cytokine (pg/mL) for a given concentration was calculated as the geometric mean of all triplicate values combined from all 5 donors.

[18] = tested on: PKC δ and ε over α and β; settings: cited from earlier work
[19] = target: PKC-γ (Homo sapiens, UniProt P05129); experiment: PKC isoform translocation in A549-tGFP cells; assay type: cell-based; design: host or cells: A549; settings: 60 minutes
Procedure: as §3, §2

T2 sequence (P05771 whole entry, canonical isoform): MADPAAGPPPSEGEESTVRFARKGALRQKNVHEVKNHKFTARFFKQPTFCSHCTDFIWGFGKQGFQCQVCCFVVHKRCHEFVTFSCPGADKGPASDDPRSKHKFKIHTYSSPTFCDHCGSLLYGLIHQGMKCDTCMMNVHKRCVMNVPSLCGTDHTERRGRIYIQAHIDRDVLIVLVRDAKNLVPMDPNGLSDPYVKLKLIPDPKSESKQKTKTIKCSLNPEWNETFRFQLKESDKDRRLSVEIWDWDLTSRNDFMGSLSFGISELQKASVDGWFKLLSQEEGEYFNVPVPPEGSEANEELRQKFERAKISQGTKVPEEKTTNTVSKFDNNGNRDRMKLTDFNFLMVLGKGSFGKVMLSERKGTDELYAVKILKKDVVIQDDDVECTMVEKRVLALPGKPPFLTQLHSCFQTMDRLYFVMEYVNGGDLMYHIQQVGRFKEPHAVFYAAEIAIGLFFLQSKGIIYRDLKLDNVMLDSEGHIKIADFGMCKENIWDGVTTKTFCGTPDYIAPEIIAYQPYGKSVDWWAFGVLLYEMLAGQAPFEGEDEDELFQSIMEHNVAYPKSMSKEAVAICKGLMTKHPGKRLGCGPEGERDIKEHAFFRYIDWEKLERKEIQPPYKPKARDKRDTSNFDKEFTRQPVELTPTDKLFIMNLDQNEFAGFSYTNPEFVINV
T3 sequence (P05771 1-673 isoform P05771-2): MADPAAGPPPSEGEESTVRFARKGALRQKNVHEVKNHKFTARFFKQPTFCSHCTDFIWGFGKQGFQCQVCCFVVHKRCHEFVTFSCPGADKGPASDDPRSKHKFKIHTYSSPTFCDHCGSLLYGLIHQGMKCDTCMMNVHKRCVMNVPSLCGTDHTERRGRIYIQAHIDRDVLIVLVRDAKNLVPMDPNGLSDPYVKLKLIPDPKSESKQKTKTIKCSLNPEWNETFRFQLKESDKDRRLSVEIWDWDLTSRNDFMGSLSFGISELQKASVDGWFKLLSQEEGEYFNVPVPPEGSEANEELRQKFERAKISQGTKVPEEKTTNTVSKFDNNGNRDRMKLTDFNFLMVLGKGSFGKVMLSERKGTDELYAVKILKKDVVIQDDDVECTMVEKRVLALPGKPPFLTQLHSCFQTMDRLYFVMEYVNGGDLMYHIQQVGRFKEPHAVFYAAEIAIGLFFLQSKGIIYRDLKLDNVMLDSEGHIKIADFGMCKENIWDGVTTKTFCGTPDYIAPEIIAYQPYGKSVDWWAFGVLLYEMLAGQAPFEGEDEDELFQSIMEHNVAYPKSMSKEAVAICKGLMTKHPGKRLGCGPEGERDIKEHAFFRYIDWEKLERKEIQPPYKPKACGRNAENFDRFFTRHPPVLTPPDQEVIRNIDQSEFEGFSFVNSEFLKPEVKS
Chain of PKC-η (P24723 whole entry, canonical isoform): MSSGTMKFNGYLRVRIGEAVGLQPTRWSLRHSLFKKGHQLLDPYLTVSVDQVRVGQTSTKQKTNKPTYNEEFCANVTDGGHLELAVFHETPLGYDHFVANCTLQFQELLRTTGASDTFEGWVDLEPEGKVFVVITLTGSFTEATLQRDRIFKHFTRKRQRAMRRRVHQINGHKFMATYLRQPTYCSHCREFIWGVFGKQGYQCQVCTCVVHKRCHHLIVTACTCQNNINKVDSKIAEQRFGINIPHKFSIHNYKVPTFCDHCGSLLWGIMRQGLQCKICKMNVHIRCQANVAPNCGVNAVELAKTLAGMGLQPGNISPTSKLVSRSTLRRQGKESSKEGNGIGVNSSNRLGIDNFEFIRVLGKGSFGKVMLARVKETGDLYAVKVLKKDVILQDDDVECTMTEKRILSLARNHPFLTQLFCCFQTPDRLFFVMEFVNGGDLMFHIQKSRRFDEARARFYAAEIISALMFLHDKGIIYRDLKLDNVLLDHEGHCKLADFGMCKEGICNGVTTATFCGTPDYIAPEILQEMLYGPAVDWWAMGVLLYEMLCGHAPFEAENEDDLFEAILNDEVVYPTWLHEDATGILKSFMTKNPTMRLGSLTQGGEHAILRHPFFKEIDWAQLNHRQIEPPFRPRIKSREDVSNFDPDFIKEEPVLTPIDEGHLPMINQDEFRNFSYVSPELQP
Chain of PKC-θ (Q04759 whole entry, canonical isoform): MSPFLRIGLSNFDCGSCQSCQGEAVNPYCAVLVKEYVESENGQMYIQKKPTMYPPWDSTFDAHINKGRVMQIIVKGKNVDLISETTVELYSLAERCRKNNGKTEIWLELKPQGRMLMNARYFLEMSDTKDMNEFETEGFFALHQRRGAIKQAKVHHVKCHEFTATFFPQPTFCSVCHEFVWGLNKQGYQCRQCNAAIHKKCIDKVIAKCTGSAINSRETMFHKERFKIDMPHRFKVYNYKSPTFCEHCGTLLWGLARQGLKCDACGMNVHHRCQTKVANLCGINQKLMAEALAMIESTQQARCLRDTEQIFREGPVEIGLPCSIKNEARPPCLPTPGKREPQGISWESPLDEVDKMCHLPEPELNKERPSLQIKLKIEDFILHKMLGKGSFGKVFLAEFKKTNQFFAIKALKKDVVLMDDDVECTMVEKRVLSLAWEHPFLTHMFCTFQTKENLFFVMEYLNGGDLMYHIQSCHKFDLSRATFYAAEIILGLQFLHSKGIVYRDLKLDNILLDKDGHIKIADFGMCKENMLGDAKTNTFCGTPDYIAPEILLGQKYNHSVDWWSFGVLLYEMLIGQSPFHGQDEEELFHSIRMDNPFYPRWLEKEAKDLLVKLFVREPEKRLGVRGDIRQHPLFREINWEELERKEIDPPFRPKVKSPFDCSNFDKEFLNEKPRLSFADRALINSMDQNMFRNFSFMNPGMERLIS
Chain of PKC-δ (Q05655 whole entry, canonical isoform): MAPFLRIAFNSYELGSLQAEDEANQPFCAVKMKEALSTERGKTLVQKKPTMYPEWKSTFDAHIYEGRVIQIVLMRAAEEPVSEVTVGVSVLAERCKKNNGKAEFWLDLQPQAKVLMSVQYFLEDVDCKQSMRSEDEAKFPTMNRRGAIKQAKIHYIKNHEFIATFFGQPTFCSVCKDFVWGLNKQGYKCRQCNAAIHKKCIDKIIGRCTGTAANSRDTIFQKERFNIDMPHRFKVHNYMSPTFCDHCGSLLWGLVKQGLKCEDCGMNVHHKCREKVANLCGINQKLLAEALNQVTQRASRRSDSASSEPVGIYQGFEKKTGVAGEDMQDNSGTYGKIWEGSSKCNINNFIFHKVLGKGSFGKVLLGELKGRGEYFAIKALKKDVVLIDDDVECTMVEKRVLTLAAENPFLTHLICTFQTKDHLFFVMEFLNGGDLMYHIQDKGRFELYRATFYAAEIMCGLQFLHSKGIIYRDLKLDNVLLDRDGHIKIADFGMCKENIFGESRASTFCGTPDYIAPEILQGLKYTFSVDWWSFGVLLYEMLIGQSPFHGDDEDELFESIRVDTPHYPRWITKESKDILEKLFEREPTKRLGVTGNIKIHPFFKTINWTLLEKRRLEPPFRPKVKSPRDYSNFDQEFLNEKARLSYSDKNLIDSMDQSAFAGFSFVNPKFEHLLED

CCCCCCCCCCCCCC(=O)O[C@@H]1[C@@H](C)[C@@]2(O)[C@@H](C=C(CO)C[C@]3(O)C(=O)C(C)=C[C@@H]23)[C@@H]2C(C)(C)[C@]12OC(C)=O [PMA, phorbol 12-myristate 13-acetate, reference compound]
CD62P EC50/CD69 EC50 ratio Geomean [1]: 1.5

CC(C)[C@H]1C(=O)N[C@H](CO)Cc2c[nH]c3cccc(c23)N1C [Indolactam, reference compound]
CD62P EC50/CD69 EC50 ratio Geomean [1]: 2.0

CC(C)=C1CC(CO)(COC(=O)c2ccc(C#Cc3ccc(C)cc3)cc2)OC1=O (stereo not shown) [Comin compound 2]
HIV RNA Fold∆ over DMSO, Geomean ([2]; agonist alone): 13 fold
HIV RNA Fold∆ over DMSO, Geomean ([2]; +5 μM Gö-6850 Pan-PKC Inhibitor): 1.6 fold
HIV RNA Fold∆ over DMSO, Geomean ([2]; +25 μM Gö-6976 Classical-PKC Inhibitor): 15 fold
EC50 ([3]; A549-tGFP cells, 60 minutes, read-out: EC50 for PKC-α translocation): > 50000 nM
EC50 ([4]; A549-tGFP cells, 60 minutes, read-out: EC50 for PKC-δ translocation): 4040 nM
EC50 [5]: 1190 nM
EC50 [6]: 792 nM
EC50 [7]: 966 nM
EC50 [8]: 6650 nM
EC50 [9]: 783 nM

CCCCCC(=O)O[C@H]1C(C)=C[C@]23C(=O)[C@@H](C=C(CO)[C@@H](O)[C@]12O)[C@H]1[C@@H](C[C@H]3C)C1(C)C [Ingenol B, reference compound]
CD62P EC50/CD69 EC50 ratio Geomean [1]: 1.8

Cn1c2ccccc2c2c3c(c4c5ccccc5n(CCC#N)c4c21)CNC3=O [Gӧ-6976]
IC50 [10]: 101 nM
IC50 [11]: 469 nM
IC50 [12]: 182 nM
estimated effect on novel PKC isoforms [13]: without impacting novel PKC isoforms
estimated inhibition of classical isoform activity [13]: 75%–95%
free in cell culture media [14]: 34%

CC(=O)O[C@@]12C[C@@H](C)[C@@]3(O)[C@@H](C=C(CO)C[C@]4(O)C(=O)C(C)=C[C@@H]34)[C@@H]1C2(C)C [Prostratin, prostratin, reference compound]
EC50 ([2]; Human immunodeficiency virus 1, CD4+ T, read-out: EC50, activation of HIV expression): 2500 nM
EC50 [15]: 280 nM
platelet aggregation [16]: stimulated platelet aggregation
GM-CSF in PBMC culture supernatant ([17]; 625 nM): 35 pg/mL
IFN-γ in PBMC culture supernatant ([17]; 625 nM): 255 pg/mL
IL-1b in PBMC culture supernatant ([17]; 625 nM): 57 pg/mL
IL-2 in PBMC culture supernatant ([17]; 625 nM): 22 pg/mL
IL-4 in PBMC culture supernatant ([17]; 625 nM): 0.7 pg/mL
IL-6 in PBMC culture supernatant ([17]; 625 nM): 40 pg/mL
IL-8 in PBMC culture supernatant ([17]; 625 nM): 40,698 pg/mL
IL-10 in PBMC culture supernatant ([17]; 625 nM): 4 pg/mL
IL-12p70 in PBMC culture supernatant ([17]; 625 nM): 10 pg/mL
TNF-α in PBMC culture supernatant ([17]; 625 nM): 634 pg/mL
GM-CSF in PBMC culture supernatant ([17]; 2500 nM): 68 pg/mL
IFN-γ in PBMC culture supernatant ([17]; 2500 nM): 292 pg/mL
IL-1b in PBMC culture supernatant ([17]; 2500 nM): 108 pg/mL
IL-2 in PBMC culture supernatant ([17]; 2500 nM): 32 pg/mL
IL-4 in PBMC culture supernatant ([17]; 2500 nM): 1.1 pg/mL
IL-6 in PBMC culture supernatant ([17]; 2500 nM): 78 pg/mL
IL-8 in PBMC culture supernatant ([17]; 2500 nM): 45,930 pg/mL
IL-10 in PBMC culture supernatant ([17]; 2500 nM): 4.6 pg/mL
IL-12p70 in PBMC culture supernatant ([17]; 2500 nM): 12 pg/mL
TNF-α in PBMC culture supernatant ([17]; 2500 nM): 1489 pg/mL

CC(C)CC(C/C=C1\CC(CO)(COC(=O)C(C)(C)C)OC1=O)CC(C)C (stereo not shown) [AJH-863, reference compound]
potency as PKC agonist [18]: low nanomolar potency
selectivity for δ and ε over α and β [18]: approximately 10 fold
EC50 [3]: > 50000 nM
EC50 ([4]; EC50 for PKC-δ translocation): 2320 nM
EC50 [5]: 1890 nM
EC50 [6]: 1200 nM
EC50 [7]: 1300 nM
EC50 [8]: 1060 nM
EC50 [19]: 19400 nM
EC50 [9]: 505 nM
